Calls of active or inactive are those of the source. No cut-off for these calls is given here.
Key:
[1] = target: Amyloid-beta precursor protein (Homo sapiens) (UniProt P05067); test: Inhibition of self-induced amyloid beta (1 to 40) (unknown origin) fibril aggregation assessed as aggregation level at 100 uM measured on day 3 by UV-visible turbidity method; parameters: scale not given: the % may be the effect or the level left
[2] = target: Amyloid-beta precursor protein (Homo sapiens) (UniProt P05067); test: Inhibition of self-induced amyloid beta (1 to 40) (unknown origin) fibril aggregation assessed as aggregation level at 100 uM measured on day 10 by UV-visible turbidity method; parameters: scale not given: the % may be the effect or the level left
[3] = Inhibition of Cu2+ induced amyloid beta (1 to 40) fibril aggregation assessed as aggregation level at 100 uM measured on day 3 by UV-visible turbidity method (reference value: 100 +/- 17.24%); parameters: scale not given: the % may be the effect or the level left
[4] = target: Amyloid-beta precursor protein (Homo sapiens) (UniProt P05067); test: Inhibition of self-induced amyloid beta (1 to 40) (unknown origin) fibril aggregation assessed as aggregation level at 100 uM measured on day 7 by UV-visible turbidity method; parameters: scale not given: the % may be the effect or the level left
[5] = Inhibition of Cu2+ induced amyloid beta (1 to 40) fibril aggregation assessed as fluorescence emission at 100 uM measured on day 10 by thioflavin-T based assay (reference value: 412.11 +/- 35.93)
[6] = Metal chelating activity assessed as inhibition of Cu2+ induced amyloid beta (1 to 40) aggregation by measuring decrease in ROS production at 2 equiv after 75 mins by fluorescence assay
[7] = Metal chelating activity assessed as compound-Cu2+ adduct formation by spectrophotometric analysis
[8] = target: Amyloid-beta precursor protein (Homo sapiens) (UniProt P05067); test: Induction of amyloid beta (1 to 40) (unknown origin) amorphous aggregation at 100 uM after 10 days
[9] = Inhibition of Cu2+ induced amyloid beta (1 to 40) fibril aggregation assessed as aggregation level at 100 uM measured on day 10 by UV-visible turbidity method (reference value: 100 +/- 8.72%); parameters: scale not given: the % may be the effect or the level left
Beta-secretase 1 [10] = target: T1, Beta-secretase 1 (Homo sapiens, UniProt P56817); test: Inhibition of BACE 1 (unknown origin) using 500 nM of Rh-EVNLDAEFK-Quencher as substrate after 1 hr by FRET assay
T1 sequence (P56817 whole entry): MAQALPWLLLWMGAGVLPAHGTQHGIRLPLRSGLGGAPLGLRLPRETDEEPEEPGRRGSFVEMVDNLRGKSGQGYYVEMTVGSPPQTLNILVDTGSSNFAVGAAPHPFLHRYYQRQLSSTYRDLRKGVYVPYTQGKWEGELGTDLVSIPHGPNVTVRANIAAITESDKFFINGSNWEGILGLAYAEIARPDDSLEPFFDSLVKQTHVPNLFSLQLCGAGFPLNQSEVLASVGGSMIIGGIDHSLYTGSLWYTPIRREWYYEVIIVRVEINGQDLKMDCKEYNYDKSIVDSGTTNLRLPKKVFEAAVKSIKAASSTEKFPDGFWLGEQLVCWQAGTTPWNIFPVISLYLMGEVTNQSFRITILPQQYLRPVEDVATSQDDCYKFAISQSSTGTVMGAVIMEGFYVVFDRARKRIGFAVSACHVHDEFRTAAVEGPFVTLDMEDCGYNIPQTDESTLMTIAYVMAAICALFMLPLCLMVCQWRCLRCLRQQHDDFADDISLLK

[11] = Toxicity in Tetrahymena thermophila assessed as decrease in viability after 48 hrs by MTT assay; assay type: organism-based; conditions: Tetrahymena thermophila cells, read-out: LD50
[12] = target: Amyloid-beta precursor protein (Homo sapiens) (UniProt P05067); test: Disaggregation of self-induced amyloid beta (1 to 40) (unknown origin) preformed fibrils assessed as aggregation level at 100 uM after 4 days by UV-visible turbidity method
[13] = target: Amyloid-beta precursor protein (Homo sapiens) (UniProt P05067); test: Inhibition of self-induced amyloid beta (1 to 40) (unknown origin) fibril aggregation assessed as fluorescence emission at 100 uM measured on day 10 by thioflavin-T based assay; parameters: reference not given here
Beta-secretase 1 [14] = target: T1, Beta-secretase 1; test: Inhibition of BACE 1 (unknown origin) using 250 nM of Rh-EVNLDAEFK-Quencher as substrate after 1 hr by FRET assay
[15] = Disaggregation of Cu2+ induced amyloid beta (1 to 40) preformed fibrils assessed as aggregation level at 100 uM after 4 days by UV-visible turbidity method (reference value: 143.11 +/- 0.76%)
[16] = Inhibition of Cu2+ induced amyloid beta (1 to 40) fibril aggregation assessed as fluorescence emission at 100 uM measured on day 7 by thioflavin-T based assay (reference value: 181.04 +/- 1.74)
[17] = target: Amyloid-beta precursor protein (Homo sapiens) (UniProt P05067); test: Inhibition of self-induced amyloid beta (1 to 40) (unknown origin) fibril aggregation assessed as fluorescence emission at 100 uM measured on day 7 by thioflavin-T based assay
HEK293 = test: Cytotoxicity against human HEK293 cells assessed as decrease in cell viability after 48 hrs by MTT assay relative to resveratrol; assay type: cell-based; conditions: hek293, 48 h
Tetrahymena thermophila = test: Toxicity in Tetrahymena thermophila assessed as decrease in viability after 48 hrs by MTT assay relative to resveratrol; assay type: organism-based; conditions: in vivo
[18] = Disaggregation of Cu2+ induced amyloid beta (1 to 40) preformed fibrils assessed as fluorescence emission at 100 uM after 4 days by thioflavin-T based assay (reference value: 178.07 +/- 17.24)
[19] = Antioxidant activity assessed as AAPH radical scavenging activity at 1 to 16 uM by ORAC assay; assay type: functional
[20] = target: Amyloid-beta precursor protein (Homo sapiens) (UniProt P05067); test: Disaggregation of self-induced amyloid beta (1 to 40) (unknown origin) preformed fibrils assessed as fluorescence emission at 100 uM after 12 days by thioflavin-T based assay; parameters: reference not given here
[21] = Inhibition of Cu2+ induced amyloid beta (1 to 40) fibril aggregation assessed as aggregation level at 100 uM measured on day 7 by UV-visible turbidity method (reference value: 100 +/- 0.96%); parameters: scale not given: the % may be the effect or the level left
[22] = Cytotoxicity against human HEK293 cells assessed as decrease in cell viability after 48 hrs by MTT assay; assay type: cell-based; conditions: read-out: LD50
[23] = target: Amyloid-beta precursor protein (Homo sapiens) (UniProt P05067); test: Inhibition of self-induced amyloid beta (1 to 40) (unknown origin) fibril aggregation assessed as fluorescence emission at 100 uM measured on day 3 by thioflavin-T based assay
[24] = Disaggregation of Cu2+ induced amyloid beta (1 to 40) preformed fibrils assessed as fluorescence emission at 100 uM after 12 days by thioflavin-T based assay (reference value: 150.21 +/- 2.32)
[25] = Inhibition of Cu2+ induced amyloid beta (1 to 40) fibril aggregation assessed as fluorescence emission at 100 uM measured on day 3 by thioflavin-T based assay (reference value: 33.64 +/- 5.80)
Beta-secretase 1 [26] = target: T1, Beta-secretase 1; test: Inhibition of BACE 1 (unknown origin) at 50 uM using Rh-EVNLDAEFK-Quencher as substrate after 1 hr by FRET assay relative to control
[27] = Disaggregation of Cu2+ induced amyloid beta (1 to 40) preformed fibrils assessed as aggregation level at 100 uM after 12 days by UV-visible turbidity method (reference value: 120.73 +/- 1.86%)
Beta-secretase 1 [28] = target: T1, Beta-secretase 1; test: Inhibition of BACE 1 (unknown origin) at 10 to 50 uM using Rh-EVNLDAEFK-Quencher as substrate after 1 hr by FRET assay relative to control
[29] = target: Amyloid-beta precursor protein (Homo sapiens) (UniProt P05067); test: Disaggregation of self-induced amyloid beta (1 to 40) (unknown origin) preformed fibrils assessed as aggregation level at 100 uM after 12 days by UV-visible turbidity method
[30] = Metal chelating activity assessed as compound-Cu2+ adduct formation at 20 uM by spectrophotometric titration analysis
[31] = target: Amyloid-beta precursor protein (Homo sapiens) (UniProt P05067); test: Disaggregation of self-induced amyloid beta (1 to 40) (unknown origin) preformed fibrils assessed as fluorescence emission at 100 uM after 4 days by thioflavin-T based assay; parameters: reference not given here
[32] = Antioxidant activity assessed as AAPH radical scavenging activity up to 64 uM by ORAC assay; assay type: functional

Chain of Amyloid-beta precursor protein (Homo sapiens) (P05067 whole entry): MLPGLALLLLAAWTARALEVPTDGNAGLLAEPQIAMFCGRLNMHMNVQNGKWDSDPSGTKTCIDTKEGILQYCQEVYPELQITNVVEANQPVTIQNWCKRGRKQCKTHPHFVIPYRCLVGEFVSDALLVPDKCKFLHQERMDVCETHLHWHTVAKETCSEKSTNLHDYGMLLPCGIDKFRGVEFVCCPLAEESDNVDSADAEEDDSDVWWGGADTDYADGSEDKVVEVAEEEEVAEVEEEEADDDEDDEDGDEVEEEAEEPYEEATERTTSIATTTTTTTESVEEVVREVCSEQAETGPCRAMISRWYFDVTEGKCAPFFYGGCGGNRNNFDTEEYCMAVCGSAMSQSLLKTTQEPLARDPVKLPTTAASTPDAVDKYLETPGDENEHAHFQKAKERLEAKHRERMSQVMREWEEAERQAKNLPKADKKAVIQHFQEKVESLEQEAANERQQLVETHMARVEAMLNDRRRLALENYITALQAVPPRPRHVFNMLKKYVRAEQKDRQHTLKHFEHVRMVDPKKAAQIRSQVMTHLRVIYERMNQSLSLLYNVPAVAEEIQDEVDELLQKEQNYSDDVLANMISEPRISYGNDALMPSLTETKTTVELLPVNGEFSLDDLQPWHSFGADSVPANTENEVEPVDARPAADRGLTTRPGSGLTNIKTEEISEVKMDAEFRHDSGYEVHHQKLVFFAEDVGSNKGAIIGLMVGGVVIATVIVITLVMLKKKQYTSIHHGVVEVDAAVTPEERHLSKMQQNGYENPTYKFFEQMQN

| SMILES | Activity [1] [%] | Activity [2] [%] | Activity [3] [%] | Activity [4] [%] | Flu intensity [5] | inhibition [6] [%] | Activity [9] [%] | IC50 (Beta-secretase 1 [10]) [µM] | Activity [12] [%] | Flu intensity [13] | IC50 (Beta-secretase 1 [14]) [µM] | Activity [15] [%] | Flu intensity [16] | Flu intensity [17] | fold change (FC) (HEK293) | Flu intensity [18] | Flu intensity [20] | Activity [21] [%] | CC50 at 48 h [22] [µM] | Flu intensity [23] | other results |
| --- | --- | --- | --- | --- | --- | --- | --- | --- | --- | --- | --- | --- | --- | --- | --- | --- | --- | --- | --- | --- | --- |
| Cl.Oc1ccc(/C=N/CCNCCn2cnc3ccccc32)c(O)c1 | 65.6 | 69 | 328 | 57.5 | 95 | 93.7 | 23.1 | 18.5 | 72.2 | 282 | 15.6 | 48.5 | 106 | 225 | 2.6 | 60.4 | 160 | 58.5 | 184 | 165 | Activity [7]: Active; Activity [8]: 6 to 33%; LC50 at 48 h [11]: 529 µM; fold change (FC) (Tetrahymena thermophila): 2.2; ORAC (Trolox equivalents) [19]: 1.42; Flu intensity [24]: 48; Flu intensity [25]: 110; inhibition (Beta-secretase 1 [26]): 62.5%; Activity [27]: 38.6%; inhibition (Beta-secretase 1 [28]): < 50%; Activity [29]: 62.6%; logKa [30]: 14.8; Flu intensity [31]: 184 |
| O=C(NCCNc1ccnc2cc(Cl)ccc12)c1cnccn1 | 125 | 188 | 124 | 181 | 195 | 36.2 | 47.2 | 9.9 | 113 | 767 | 1.7 | 87.7 | 245 | 707 | 1.6 | 109 | 224 | 135 | 113 | 313 | Flu intensity [24]: 71.7; Activity [32]: inactive; Flu intensity [25]: 41.7; inhibition (Beta-secretase 1 [26]): 91%; Activity [27]: 57.6%; Activity [29]: 87.8%; logKa [30]: inactive; Flu intensity [31]: 289 |

Source: ChEMBL document CHEMBL4152355, “Novel multi-target compounds in the quest for new chemotherapies against Alzheimer's disease: An experimental and theoretical study” (Bioorg Med Chem, 2018)
